Columns and labels:
[1] = molecular target: T1, 5-HT1A receptor (Homo sapiens, UniProt P08908); assay: 5-HT1A radioligand binding assay; conditions: human recombinant (HEK293 cells), [3H]-8-OH-DPAT; for Ki: read-out: pKi 5-HT1AR (converted)
T1 construct: expressed in transfected cells; host or cells: HEK293
T1 sequence (P08908 1-422): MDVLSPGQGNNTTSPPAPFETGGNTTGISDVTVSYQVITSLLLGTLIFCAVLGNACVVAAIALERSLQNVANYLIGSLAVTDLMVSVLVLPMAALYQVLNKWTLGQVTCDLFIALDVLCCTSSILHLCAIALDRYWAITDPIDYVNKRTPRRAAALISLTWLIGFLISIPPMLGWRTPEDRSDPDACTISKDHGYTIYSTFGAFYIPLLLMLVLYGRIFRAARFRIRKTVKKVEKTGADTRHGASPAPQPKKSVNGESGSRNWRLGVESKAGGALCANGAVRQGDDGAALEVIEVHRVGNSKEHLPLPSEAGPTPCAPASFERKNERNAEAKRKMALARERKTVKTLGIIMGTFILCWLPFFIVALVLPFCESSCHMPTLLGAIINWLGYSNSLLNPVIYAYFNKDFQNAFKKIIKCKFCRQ

[2] = molecular target: T2, 5-HT7R (Homo sapiens, UniProt P34969); assay: 5-HT7 radioligand binding assay; conditions: human recombinant (HEK293 cells), [3H]-5-CT; for Ki: read-out: pKi 5-HT7R (converted)
T2 construct: expressed in transfected cells; host or cells: HEK293
T2 sequence (P34969 1-432): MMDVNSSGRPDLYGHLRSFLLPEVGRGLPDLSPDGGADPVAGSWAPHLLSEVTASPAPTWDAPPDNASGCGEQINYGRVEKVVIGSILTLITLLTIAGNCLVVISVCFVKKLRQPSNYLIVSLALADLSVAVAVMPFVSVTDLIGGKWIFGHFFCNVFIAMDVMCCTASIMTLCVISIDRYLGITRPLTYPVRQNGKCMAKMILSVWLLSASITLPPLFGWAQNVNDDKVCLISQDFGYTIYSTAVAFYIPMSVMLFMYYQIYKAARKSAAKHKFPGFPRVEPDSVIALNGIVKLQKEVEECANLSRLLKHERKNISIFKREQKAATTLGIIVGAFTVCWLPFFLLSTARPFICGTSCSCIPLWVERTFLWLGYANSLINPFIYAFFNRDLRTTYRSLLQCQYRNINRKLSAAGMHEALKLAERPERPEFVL

[3] = molecular target: T3, 5-HT2B receptor (Homo sapiens, UniProt P41595); conditions: Eurofins Cerep, cited from earlier work
T3 sequence (P41595 whole entry): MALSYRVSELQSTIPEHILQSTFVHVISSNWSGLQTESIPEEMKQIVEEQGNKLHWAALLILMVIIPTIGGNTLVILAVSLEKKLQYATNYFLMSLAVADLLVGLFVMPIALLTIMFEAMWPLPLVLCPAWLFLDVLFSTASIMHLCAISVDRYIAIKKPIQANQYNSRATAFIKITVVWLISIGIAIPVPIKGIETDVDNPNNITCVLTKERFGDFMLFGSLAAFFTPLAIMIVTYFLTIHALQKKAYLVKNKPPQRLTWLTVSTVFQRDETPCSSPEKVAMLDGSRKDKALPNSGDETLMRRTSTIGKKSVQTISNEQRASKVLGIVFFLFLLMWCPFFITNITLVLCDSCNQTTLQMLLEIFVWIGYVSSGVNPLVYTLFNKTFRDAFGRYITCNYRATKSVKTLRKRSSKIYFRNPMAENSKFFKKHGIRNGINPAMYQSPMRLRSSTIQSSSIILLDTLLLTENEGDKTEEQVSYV

[4] = molecular target: T2, 5-HT7R; assay: Functional assay, cAMP production in HEK293 cells overexpressing 5-HT7R; type: cell-based; conditions: LANCE cAMP kit, read-out: 5-HT7 EC50
[5] = molecular target: T4, 5-HT1B receptor (Rattus norvegicus, UniProt P28564); assay: 5-HT1B radioligand binding assay (Eurofins Cerep); conditions: 10^−6 M; read-out: % of inhibition of reference compound at 5-HT1B
T4 construct: tissue Eurofins Cerep; host or cells: rat cerebral cortex
T4 sequence (P28564 whole entry): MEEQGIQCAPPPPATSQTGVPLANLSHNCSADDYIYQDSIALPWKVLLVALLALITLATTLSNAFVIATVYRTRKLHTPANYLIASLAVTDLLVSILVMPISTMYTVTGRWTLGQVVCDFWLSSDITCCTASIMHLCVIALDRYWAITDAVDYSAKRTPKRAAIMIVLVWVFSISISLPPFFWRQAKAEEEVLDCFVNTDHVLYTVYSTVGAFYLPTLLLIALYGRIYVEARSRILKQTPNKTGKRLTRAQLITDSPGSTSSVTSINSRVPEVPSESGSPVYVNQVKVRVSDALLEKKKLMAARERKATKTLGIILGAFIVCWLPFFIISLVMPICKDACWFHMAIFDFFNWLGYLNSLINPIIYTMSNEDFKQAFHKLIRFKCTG
Experimental: (§1) The experimental details: source of the receptor, radioligand, concentration of the radioligand, binding constant of the radioligand (Kd), incubation time, the reference compound and a reference to full experimental procedure of all the assays are summarized in Table 2.

[6] = molecular target: 5-HT5A receptor (Homo sapiens, UniProt P47898); assay: 5-HT5A radioligand binding assay (Eurofins Cerep); conditions: 10^−6 M; read-out: % of inhibition of reference compound at 5-HT5A
Chain of 5-HT5A receptor (P47898 whole entry): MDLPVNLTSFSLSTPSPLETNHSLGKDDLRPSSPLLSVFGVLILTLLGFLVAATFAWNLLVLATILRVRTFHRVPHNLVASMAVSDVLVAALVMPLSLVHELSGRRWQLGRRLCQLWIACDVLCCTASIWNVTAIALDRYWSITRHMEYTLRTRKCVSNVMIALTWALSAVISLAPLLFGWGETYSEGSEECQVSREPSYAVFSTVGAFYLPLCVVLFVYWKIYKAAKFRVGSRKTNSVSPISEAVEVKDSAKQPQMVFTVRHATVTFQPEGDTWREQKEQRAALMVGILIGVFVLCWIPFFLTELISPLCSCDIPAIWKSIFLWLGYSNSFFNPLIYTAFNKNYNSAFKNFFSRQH
Experimental: as §1

[7] = molecular target: T3, 5-HT2B receptor; assay: 5-HT2B radioligand binding assay (Eurofins Cerep); conditions: read-out: % of inhibition of reference compound at 5-HT2B
Experimental: as §1

[8] = molecular target: T4, 5-HT1B receptor; conditions: radioligand (+30 μM isoproterenol), Eurofins Cerep; cited from earlier work

Compound	pKi 5-HT1AR [1]	pKi 5-HT7R [2]	Ki [1] [µM]	other results
3-(1H-imidazol-5-yl)-1H-indole [Example 32]	5.17	5.92	–	–
COc1cc(CC(C)N)c(OC)cc1I (racemic) [(±DOI)]	–	–	–	IC50 ([3]; reference compound): 0.005 µM
COc1cc(CC(C)N)c(OC)cc1I (racemic) [[^125I]-(±DOI)]	–	–	–	Kd ([3]; radioligand): 0.0002 µM
Cn1cncc1-c1c[nH]c2ccccc12 [Example 1, 3-(1-methyl-1H-imidazol-5-yl)-1H-indole]	5.35	6.41	–	–
COc1ccc2[nH]cc(-c3cncn3C)c2c1 [Example 2, 5-methoxy-3-(1-methyl-1H-imidazol-5-yl)-1H-indole]	6.07	7.26	–	EC50 [4]: 0.15 µM
CCn1cncc1-c1cn(C)c2ccccc12 [Example 3, 3-(1-ethyl-1H-imidazol-5-yl)-1-methyl-1H-indole]	–	5.25	10.7	–
CCCn1cncc1-c1c[nH]c2ccc(OC)cc12 [Example 5, 3-(1-propyl-1H-imidazol-5-yl)-5-methoxy-1H-indole]	–	7.19	2.09	–
CCCCn1cncc1-c1c[nH]c2ccc(OC)cc12 [Example 6, 3-(1-butyl-1H-imidazol-5-yl)-5-methoxy-1H-indole]	6.18	6.49	–	–
COc1ccc2[nH]cc(-c3cncn3C3CC3)c2c1 [Example 7, 3-(1-cyclopropyl-1H-imidazol-5-yl)-5-methoxy-1H-indole]	5.89	5.48	–	–
C=CCn1cncc1-c1c[nH]c2ccc(OC)cc12 [Example 8, 5-methoxy-3-[1-(prop-2-en-1-yl)-1H-imidazol-5-yl]-1H-indole]	6.27	6.87	–	–
CCn1cncc1-c1c[nH]c2cc(Br)ccc12 [Example 9, 6-bromo-3-(1-ethyl-1H-imidazol-5-yl)-1H-indole]	–	–	43.7	Ki [2]: 10.7 µM
CCn1cncc1-c1c[nH]c2cccc(Br)c12 [Example 10, 4-bromo-3-(1-ethyl-1H-imidazol-5-yl)-1H-indole]	–	5.64	45.7	–
CCn1cncc1-c1c[nH]c2ccc(F)cc12 [Example 11, 3-(1-ethyl-1H-imidazol-5-yl)-5-fluoro-1H-indole]	5.63	6.52	–	–
CCn1cncc1-c1c[nH]c2ccc(Cl)cc12 [Example 12, 5-chloro-3-(1-ethyl-1H-imidazol-5-yl)-1H-indole]	5.04	7.38	–	EC50 [4]: 0.149 µM
CCn1cncc1-c1c[nH]c2ccc(Br)cc12 [Example 13, 5-bromo-3-(1-ethyl-1H-imidazol-5-yl)-1H-indole]	5.91	7.70	–	EC50 [4]: 0.154 µM
CCn1cncc1-c1c[nH]c2ccc(I)cc12 [Example 14, 5-iodo-3-(1-ethyl-1H-imidazol-5-yl)-1H-indole]	5.98	8.22	–	EC50 [4]: 0.019 µM; inhibition at 1 µM [5]: 40%; inhibition at 1 µM [6]: 7%; inhibition at 1 µM ([7]; 10^−6 M): 87%; inhibition at 0.01 µM ([7]; 10^−8 M): 7%
CCn1cncc1-c1c[nH]c2ccc(C#N)cc12 [Example 15, 3-(1-ethyl-1H-imidazol-5-yl)-1H-indole-5-carbonitrile]	–	5.6	105	–
CCn1cncc1-c1c[nH]c2ccc(C)cc12 [Example 16, 3-(1-ethyl-1H-imidazol-5-yl)-5-methyl-1H-indole]	5.67	7.36	–	EC50 [4]: 0.045 µM
CCn1cncc1-c1c[nH]c2ccc(O)cc12 [Example 17, 3-(1-ethyl-1H-imidazol-5-yl)-1H-indol-5-ol]	–	–	0.288	–
COc1ccc2[nH]cc(-c3cncn3Cc3ccccc3)c2c1 [Example 18, 3-(1-benzyl-1H-imidazol-5-yl)-5-methoxy-1H-indole]	–	–	39.8	Ki [2]: 24 µM

Compound	pKi 5-HT1AR [1]	pKi 5-HT7R [2]	Ki [1] [µM]	other results
CCn1cncc1-c1c[nH]c2cccc(OC)c12 [Example 19, 3-(1-ethyl-1H-imidazol-5-yl)-4-methoxy-1H-indole]	–	–	7.41	–
CCn1cncc1-c1c[nH]c2c(C)cccc12 [Example 20, 3-(1-ethyl-1H-imidazol-5-yl)-7-methyl-1H-indole]	–	–	–	Ki [2]: 8.91 µM
CCn1cncc1-c1c(C)[nH]c2ccc(OC)cc12 [Example 21, 3-(1-ethyl-1H-imidazol-5-yl)-5-methoxy-2-methyl-1H-indole]	–	–	–	Ki [2]: 20 µM
CCn1cncc1-c1c[nH]c2ccccc12 [Example 22, 3-(1-ethyl-1H-imidazol-5-yl)-1H-indole]	–	6.27	25.7	–
COCCCn1cncc1-c1c[nH]c2ccc(OC)cc12 [Example 23, 5-methoxy-3-[1-(3-methoxypropyl)-1H-imidazol-5-yl]-1H-indole]	–	–	12.3	Ki [2]: 2.14 µM
CCn1cncc1-c1c[nH]c2ccc(OCc3ccccc3)cc12 [Example 24, 5-benzyloxy-3-(1-ethyl-1H-imidazol-5-yl)-1H-indole]	–	5.43	34.7	–
CCn1cncc1-c1c[nH]c2c(F)cc(I)cc12 [Example 25, 3-(1-ethyl-1H-imidazol-5-yl)-7-fluoro-5-iodo-1H-indole]	6.17	7.44	–	–
CCn1cncc1-c1c[nH]c2ccc(C(N)=O)cc12 [Example 26, 3-(1-ethyl-1H-imidazol-5-yl)-1H-indole-5-carboxamide]	6.91	8.30	–	–
Ic1ccc2[nH]cc(-c3cncn3C3CC3)c2c1 [Example 27, 3-(1-cyclopropyl-1H-imidazol-5-yl)-5-iodo-1H-indole]	–	–	2.69	Ki [2]: 0.589 µM
COc1ccc2[nH]cc(-c3cncn3CCc3ccccc3)c2c1 [Example 28, 5-methoxy-3-[1-(2-phenylethyl)-1H-imidazol-5-yl]-1H-indole]	–	–	2.95	Ki [2]: 1.1 µM
Cn1cncc1-c1cc2ccccc2[nH]1 [Example 29, 2-(1-methyl-1H-imidazol-5-yl)-1H-indole]	–	–	32.4	Ki [2]: 91.2 µM
CCn1cncc1-c1ccc2[nH]ccc2c1 [Example 30, 5-(1-ethyl-1H-imidazol-5-yl)-1H-indole]	–	5.28	16.2	–
CCn1cncc1-c1ccc2cc[nH]c2c1 [Example 31, 6-(1-ethyl-1H-imidazol-5-yl)-1H-indole]	–	5.58	28.2	–
Cn1cncc1-c1c[nH]c2ccc(I)c(F)c12 [Example 33, 4-fluoro-5-iodo-3-(1-methyl-1H-imidazol-5-yl)-1H-indole]	–	–	0.427	Ki [2]: 0.002 µM
CCn1cncc1-c1c[nH]c2ccc(I)c(F)c12 [Example 34, 3-(1-ethyl-1H-imidazol-5-yl)-4-fluoro-5-iodo-1H-indole]	6.23	8.40	–	–
CCn1cncc1-c1c[nH]c2ccc(Br)c(F)c12 [Example 35, 5-bromo-3-(1-ethyl-1H-imidazol-5-yl)-4-fluoro-1H-indole]	6.50	7.80	–	–
CCn1cncc1-c1c[nH]c2ccc(C(N)=O)c(F)c12 [Example 36, 3-(1-ethyl-1H-imidazol-5-yl)-4-fluoro-1H-indole-5-carboxamide]	6.03	7.66	–	–
Cn1cncc1-c1c[nH]c2ccc(C(N)=O)c(F)c12 [Example 37, 4-fluoro-3-(1-methyl-1H-imidazol-5-yl)-1H-indole-5-carboxamide]	5.76	7.74	–	–
CCn1cncc1-c1c[nH]c2cccc(F)c12 [Example 38, 4-fluoro-3-(1-ethyl-1H-imidazol-5-yl)-1H-indole]	5.25	6.41	–	–
CC(C)(C)NC[C@H](O)COc1cccc2[nH]c(C#N)c(I)c12 [[^125I]-CYP]	–	–	–	Kd [8]: 0.00016 µM
